Several values for one entry are separate records, joined by “and”; a condition that tells them apart may be missing. Equal values may be shown once.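 Values below derive from 48-hour exposures of cells grown in 96-well plates, with endpoints linearly interpolated between the two concentrations bracketing the appropriate inhibition level. Abbreviation: GI50, concentration required for 50% inhibition of growth.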 Activity calls are given as the source filed them. No stated cut-off is given here; in the data, active = GI50 up to about 1.1 µM and inactive = higher.
Experiments:
Assay in all cases: NCI-60 cell line screen, 48 h
A498 = system: A498
ACHN = system: ACHN
CCRF-CEM = system: CCRF-CEM
HL-60 = system: HL-60
K562 = system: K562
MDA-MB-231 = system: MDA-MB-231
MDA-MB-435 = system: MDA-MB-435
NCI-H226 = system: NCI-H226
NCI-H23 = system: NCI-H23
NCI-H522 = system: NCI-H522
OVCAR-3 = system: OVCAR-3
RPMI-8226 = system: RPMI-8226
RXF 393 = system: RXF 393
SK-MEL-28 = system: SK-MEL-28
SR = system: SR
EKVX = system: EKVX
T47D = system: T47D
DLD-1 = system: DLD-1
HOP-18 = system: HOP-18
SNB-78 = system: SNB-78

| Compound | GI50 (A498) | GI50 (ACHN) | GI50 (CCRF-CEM) | GI50 (HL-60) | GI50 (K562) | GI50 (MDA-MB-231) | GI50 (MDA-MB-435) | GI50 (NCI-H226) | GI50 (NCI-H23) | GI50 (NCI-H522) | GI50 (OVCAR-3) | GI50 (RPMI-8226) | GI50 (RXF 393) | GI50 (SK-MEL-28) | GI50 (SR) | GI50 (EKVX) | GI50 (T47D) | GI50 (DLD-1) | GI50 (HOP-18) | GI50 (SNB-78) |
| --- | --- | --- | --- | --- | --- | --- | --- | --- | --- | --- | --- | --- | --- | --- | --- | --- | --- | --- | --- | --- |
| Oc1ccc2ccccc2c1/N=N/c1ccccc1 | > 100 µM (inactive) | 61 µM (inactive) and 60.7 µM (inactive) | > 100 µM (inactive) | > 100 µM (inactive) and 73.1 µM (inactive) | > 100 µM (inactive) and 91 µM (inactive) | 54.5 µM (inactive) and > 82.4 µM (inactive) | > 100 µM (inactive) | 73.3 µM (inactive) | > 100 µM (inactive) | > 100 µM (inactive) and > 75.3 µM (inactive) | 51.6 µM (inactive) | > 100 µM (inactive) | > 100 µM (inactive) | > 100 µM (inactive) | > 100 µM (inactive) | – | – | – | – | – |
| COCCCNc1nc(N)c(C#N)c(C#N)c1C#N | > 10 µM (inactive) | > 10 µM (inactive) | 2.48 µM (inactive) | 4.47 µM (inactive) | 2.72 µM (inactive) | > 10 µM (inactive) | > 10 µM (inactive) | > 10 µM (inactive) | > 10 µM (inactive) | > 10 µM (inactive) | > 10 µM (inactive) | > 10 µM (inactive) | > 10 µM (inactive) | > 10 µM (inactive) | > 10 µM (inactive) | > 10 µM (inactive) | > 10 µM (inactive) | – | – | – |
| CON(C)c1nc(N(C)OC)nc(N(C)OC)n1 | > 10 µM (inactive) | > 10 µM (inactive) | > 10 µM (inactive) | > 10 µM (inactive) | > 10 µM (inactive) | > 10 µM (inactive) | > 10 µM (inactive) | > 10 µM (inactive) | > 10 µM (inactive) | > 10 µM (inactive) | > 10 µM (inactive) | > 10 µM (inactive) | > 10 µM (inactive) | > 10 µM (inactive) | > 10 µM (inactive) | > 10 µM (inactive) | > 10 µM (inactive) | – | – | – |
| CC1=C2C(O)C(C(C)C(=O)NC(C)C)CCC2(C)C=CC1=O (centres undefined) | > 100 µM (inactive) | – | > 100 µM (inactive) | > 100 µM (inactive) | > 100 µM (inactive) | – | – | > 100 µM (inactive) | > 100 µM (inactive) | > 100 µM (inactive) | > 100 µM (inactive) | > 100 µM (inactive) | > 100 µM (inactive) | > 100 µM (inactive) | – | > 100 µM (inactive) | – | > 100 µM (inactive) | > 100 µM (inactive) | > 100 µM (inactive) |
| O=C(NC1C=Nc2ccc([N+](=O)[O-])cc2NC1=O)c1cc(Cl)cc([N+](=O)[O-])c1 (centres undefined) | > 100 µM (inactive) | > 100 µM (inactive) | 20.8 µM (inactive) | 12.9 µM (inactive) | 38.8 µM (inactive) | – | – | > 100 µM (inactive) | > 100 µM (inactive) | 8.65 µM (inactive) | – | 44.2 µM (inactive) | > 100 µM (inactive) | > 100 µM (inactive) | 72.3 µM (inactive) | 94.8 µM (inactive) | – | > 100 µM (inactive) | – | > 100 µM (inactive) |
| COc1nc(C#CCC(C)O)nc(OC)n1 (centres undefined) | 30.5 µM (inactive) | 17.1 µM (inactive) | – | 24.3 µM (inactive) | 38.2 µM (inactive) | 21.2 µM (inactive) | 17.9 µM (inactive) | – | 19.9 µM (inactive) | 17.7 µM (inactive) | 19.5 µM (inactive) | – | 7.38 µM (inactive) | 31.6 µM (inactive) | 21.1 µM (inactive) | 20 µM (inactive) | 47.8 µM (inactive) | – | – | – |
| Cc1cn(C2CC(N)C(C(=O)NCC(=O)O)O2)c(=O)[nH]c1=O (centres undefined) | 50.6 µM (inactive) | > 100 µM (inactive) | > 100 µM (inactive) | > 100 µM (inactive) | 95.3 µM (inactive) | > 100 µM (inactive) | > 100 µM (inactive) | > 100 µM (inactive) | > 100 µM (inactive) | > 100 µM (inactive) | > 100 µM (inactive) | > 100 µM (inactive) | > 100 µM (inactive) | > 100 µM (inactive) | > 100 µM (inactive) | > 100 µM (inactive) | > 100 µM (inactive) | – | – | – |
| COC1OC2COC(c3ccccc3)OC2C(OC(=S)c2ccccc2)C1O (centres undefined) | > 100 µM (inactive) | 75.5 µM (inactive) | 14.3 µM (inactive) | – | > 100 µM (inactive) | 14.7 µM (inactive) | 10.9 µM (inactive) | 25.1 µM (inactive) | 82.4 µM (inactive) | – | > 100 µM (inactive) | 13.9 µM (inactive) | 12 µM (inactive) | 0.662 µM (active) | > 100 µM (inactive) | 0.358 µM (active) | 1.91 µM (inactive) | – | – | – |
| N#CN=C(NCCO)NCCO | 92.7 µM (inactive) | > 100 µM (inactive) | > 100 µM (inactive) | > 100 µM (inactive) | – | – | – | > 100 µM (inactive) | – | > 100 µM (inactive) | > 100 µM (inactive) | > 100 µM (inactive) | – | > 100 µM (inactive) | > 100 µM (inactive) | > 100 µM (inactive) | – | > 100 µM (inactive) | 45.1 µM (inactive) | > 100 µM (inactive) |
| C=CCc1c(O)c2c(c3oc(=O)cc(C)c13)CC(C)O2 (centres undefined) | – | > 100 µM (inactive) | 50.4 µM (inactive) | 86.7 µM (inactive) | > 100 µM (inactive) | – | – | 41.5 µM (inactive) | > 100 µM (inactive) | > 100 µM (inactive) | > 100 µM (inactive) | 60.8 µM (inactive) | 67.8 µM (inactive) | – | > 100 µM (inactive) | > 100 µM (inactive) | – | 48.6 µM (inactive) | 90.2 µM (inactive) | > 100 µM (inactive) |
| N#Cc1c(OCCF)c2ccccc2n2c1nc1ccccc12 | 1.94 µM (inactive) | 23.3 µM (inactive) | 95.7 µM (inactive) | 97.7 µM (inactive) | > 100 µM (inactive) | > 100 µM (inactive) | 46.5 µM (inactive) | 63.5 µM (inactive) | 69 µM (inactive) | 19.6 µM (inactive) | 67 µM (inactive) | > 100 µM (inactive) | 17.3 µM (inactive) | > 100 µM (inactive) | > 100 µM (inactive) | 99.1 µM (inactive) | > 100 µM (inactive) | – | – | – |
| Cc1ccc(N2C(=O)C3CSCN3C2=O)cc1 (centres undefined) | > 100 µM (inactive) | – | > 100 µM (inactive) | > 100 µM (inactive) | > 100 µM (inactive) | – | – | > 100 µM (inactive) | > 100 µM (inactive) | > 100 µM (inactive) | > 100 µM (inactive) | > 100 µM (inactive) | – | 15.8 µM (inactive) | – | > 100 µM (inactive) | – | > 100 µM (inactive) | > 100 µM (inactive) | – |

Source: ChEMBL document CHEMBL1201862, “PubChem BioAssay data set” (2004)
